The values that follow come from US20170296573A1, “ANTITUMOR DRUG COMPRISING BETA-CYCLODEXTRIN” (JRC G. K., priority 2014, published 2017).

For series [1], the system named is AKT. Description: Example 3 Method C: recovery of AKT activities in HeLa cells after bCD washout. It is filed as cell-based. To be noted: 10 mM bCD (MBCD) one hour, washed, 10% serum, up to 120 minutes. The procedure: (§1) We ran 20 μg of proteins per lane for western blots. We ran 8, 10, 12.5 and 15% gels depending on the size of proteins being detected by western blots. When there are two proteins having a similar size, gel is flowed in each protein to make western blot analysis about each protein. The immunoprecipitation was undergone by adding 200 μg of protein from solubilized cells and Protein G Sepharose or Protein A Sepharose (Sigma P3296/P9242) pre-conjugated with immunoprecipitation antibody to a buffer for immunoprecipitation, and slowly rotating the tube containing the sample buffer at 4° C. overnight. The buffer for immunoprecipitation comprises 20 mM Tris Ph 7.5, 1% Triton-X100, 150 mM NaCl, phosphatase inhibitor cocktail (Cell Signaling (#58709S)), and 10% glycerol. Next morning, the content in the tube was centrifuged. The precipitate was washed with the same buffer twice and dissolved in SDS buffer. The precipitate in the solution was separated with 15% SDS-PAGE or 12.5% SDS-PAGE and analyzed by Western blotting.
HeLa cells were incubated with 10 mM bCD for one hour in the presence of 10% serum before the cells were washed and re-incubated in medium containing 10% serum for the indicated period (˜120 minutes).

The subject of series [2] is AKT. The experiment in a line: Example 6 Test A: AKT phosphorylation, A431 squamous cancer cells. It is filed as cell-based. The note with it: 10 mM bCD (MBCD) 30 minutes, 25 mM glucose. The procedure: as §1, with “The buffer for immunoprecipitation comprises 20 mM Tris Ph 7.5, 1% Triton-X100, 150 mM NaCl, phosphatase inhibitor cocktail (Cell Signaling (#58709S)), and 10% glycerol. Next morning, the content in the tube was centrifuged. The precipitate was washed with the same buffer twice and dissolved in SDS buffer.” left out
(§2) (Test A) HeLa cervical cancer cells, UOK121 renal cancer cells, Panc-1 pancreatic cancer cells, and A431 squamous cancer cells were untreated, pre-treated with 10 mM 2DG, co-incubated with 10 mM bCD for the last 30 minutes, or both-treated with the 10 mM 2DG and the 10 mM bCD, in the presence of 25 mM glucose contained in the media. Each cell was harvested and analyzed by Western Blotting. (Test B) The same samples of A431 cell lysates in Test A were analyzed for EGFR activation, ERK1/2 activation, and PI3K activation. […] The cells were harvested and the live cells were counted by trypan-blue dye exclusion assay. […]

In series [3] the test system is PI3K-AKT pro-survival signals. The experiment in a line: Example 1 Tests B and C: EGF or IGF1 challenge of HeLa cells, Western blot for EGFR, IGF1R, PI3K, AKT phosphorylation. In kind it is cell-based. The note with it: 10 mM bCD (MBCD) 30 minutes, then 100 ng/mL EGF or 10 ng/mL IGF1. The procedure:
as §1, with “Next morning, the content in the tube was centrifuged. The precipitate was washed with the same buffer twice and dissolved in SDS buffer.” left out
(§3) (Test A) HeLa cells were incubated in serum-free medium with 0, 1.75, 3.5, and 7.0 mM bCD for 30 minutes, which were prepared in duplicate in each bCD concentration. […] The cells were harvested and analyzed by Western Blots for phosphor-serine AKT and AKT, in which the phosphorylation of AKT was used as an indicator of the AKT activation. […] The cells were harvested and analyzed by Western Blots about EGFR, IGF1R, ERK, PI3K, and AKT, as well as each phosphorylation thereof. […]

Series [4] has as its system AKT. Description: Example 6 Test A: AKT phosphorylation, UOK121 renal cancer cells. In kind it is cell-based, human. To be noted: 10 mM bCD (MBCD) 30 minutes, 25 mM glucose. The procedure:
as §1, with “The buffer for immunoprecipitation comprises 20 mM Tris Ph 7.5, 1% Triton-X100, 150 mM NaCl, phosphatase inhibitor cocktail (Cell Signaling (#58709S)), and 10% glycerol. Next morning, the content in the tube was centrifuged. The precipitate was washed with the same buffer twice and dissolved in SDS buffer.” left out
as §2

For series [5], the system named is AKT. Description: Example 1 Test A: IGF1-stimulated AKT phosphorylation in HeLa cells, Western blot. It is filed as cell-based. The note with it: serum-free, 7 mM bCD (MBCD) 30 minutes, 20 ng/mL IGF1 20 minutes. The procedure:
as §1, with “Next morning, the content in the tube was centrifuged. The precipitate was washed with the same buffer twice and dissolved in SDS buffer.” left out
as §3
(A western blot detects proteins with antibodies after separation by electrophoresis.)

The test system of series [6] is IGF1-induced hypoglycemia. Description: Example 4: IGF1-induced hypoglycemia in mice. In kind it is in vivo. To be noted: five-hour starved mice, 40 μg bCD (HPBCD) 30 minutes before 100 ng IGF1, glucose after thirty minutes. The procedure:
Five-hour starved mice were either pre-treated with 40 μg bCD for 30 minutes, or without. They were then injected with 100 ng IGF1. After thirty minutes, the blood glucose levels were measured by drawing blood from each mouse tail. The experiments were performed in triplicate samples and the error bars indicate the standard deviation. The mice were all about 20 g.

The test system of series [7] is AKT. Description: Example 6 Test A: AKT phosphorylation, HeLa cervical cancer cells. The note with it: 10 mM bCD (MBCD) 30 minutes, 25 mM glucose. In kind it is cell-based. The procedure:
as §1, with “The buffer for immunoprecipitation comprises 20 mM Tris Ph 7.5, 1% Triton-X100, 150 mM NaCl, phosphatase inhibitor cocktail (Cell Signaling (#58709S)), and 10% glycerol. Next morning, the content in the tube was centrifuged. The precipitate was washed with the same buffer twice and dissolved in SDS buffer.” left out
as §2

The test system of series [8] is EGFR, ERK1/2, and PI3K. The experiment in a line: Example 6 Test B: EGFR, ERK1/2 and PI3K activation in A431 cells. The note with it: bCD and/or 2DG, 10 mM each. In kind it is cell-based. The procedure:
as §1, with “The buffer for immunoprecipitation comprises 20 mM Tris Ph 7.5, 1% Triton-X100, 150 mM NaCl, phosphatase inhibitor cocktail (Cell Signaling (#58709S)), and 10% glycerol. Next morning, the content in the tube was centrifuged. The precipitate was washed with the same buffer twice and dissolved in SDS buffer.” left out
as §2

Series [9] concerns AKT. Description: Example 6 Test A: AKT phosphorylation, Panc-1 pancreatic cancer cells. It is filed as cell-based. The note with it: Panc-1 cells, 10 mM bCD (MBCD) 30 minutes, 25 mM glucose. The procedure: as §1, with “The buffer for immunoprecipitation comprises 20 mM Tris Ph 7.5, 1% Triton-X100, 150 mM NaCl, phosphatase inhibitor cocktail (Cell Signaling (#58709S)), and 10% glycerol. Next morning, the content in the tube was centrifuged. The precipitate was washed with the same buffer twice and dissolved in SDS buffer.” left out
as §2

Series [10] relates to AKT. The experiment in a line: Example 3 Method B: AKT phosphorylation in RCC4 cells in 10% serum. In kind it is cell-based. The note with it: 10 mM 2DG 2 hours, 10 mM bCD (MBCD) last 30 minutes. The procedure: as §1
RCC4 cells were incubated with or without 10 mM 2DG for 2 hours in the presence of 10% serum. In the last 30 minutes, each one subset of cells treated/untreated with 2DG was exposed to 10 mM bCD before the cells were harvested and analyzed.

For series [11], the system named is RTK-Ras-ERK signals. The experiment in a line: Example 1 Tests B and C: ERK signals in EGF or IGF1 challenged HeLa cells, Western blot. To be noted: 10 mM bCD (MBCD) 30 minutes, then EGF or IGF1. It is filed as cell-based. The procedure:
as §1, with “Next morning, the content in the tube was centrifuged. The precipitate was washed with the same buffer twice and dissolved in SDS buffer.” left out
as §3

For series [12] the following is noted: mice, injected, four hours later; cited from earlier work.
The test system of series [13] is UOK121 cells. The experiment in a line: Example 10 Test B: cyclodextrin with 2DG-ABT in UOK121 cells, live cells by trypan-blue dye exclusion. In kind it is cell-based, human. The note with it: 10 mM 2DG, 10 mM cyclodextrin, 0.3 μM ABT-263, 25 mM glucose. The procedure:
Dead and live cells were counted by trypan-blue dye exclusion methods. These experiments were done in triplicate, and the error bars indicate the standard deviation.
(Test A) UOK121 cells were incubated in 10% serum medium with 5 mM or 10 mM α-, β-, and γ-cyclodextrins for 45 minutes. The same medium without any cyclodextrin was also incubated as a control. The cells were harvested and analyzed by Western Blots for the phosphorylation of AKT and ERK1/2 as an indicator of the AKT and ERK1/2 activations. (Test B) 10 mM 2DG was added to a medium of U0K121 cells in the presence of 25 mM glucose, and the medium was incubated for 1.5 hours. To the medium was added 10 mM α-, β-, or γ-cyclodextrin, and the medium was incubated for 30 minutes. Then, 0.3 μM ABT-263 was added thereto, and the medium was further incubated for 2 hours. Separately, a control that includes only α-, β-, or γ-cyclodextrin without 2DG or ABT-263, and another control that includes neither α-, β-, or γ-cyclodextrin, nor 2DG or ABT-263 were prepared. 2.5 hours after adding each cyclodextrin (i.e., 2 hours after adding ABT-263), all the cells were washed with the medium twice, and next day the live cells were counted by trypan-blue dye exclusion assay.

For the molecule methyl-β-cyclodextrin [bCD], in series [1], the “AKT activities coming back after return to media without bCD” value was “did not take long”. For the same molecule, the AKT phosphorylation result in series [2], in [4], in series [7] and in series [9] was “attenuated” throughout. In addition, in [3], the AKT activations result was “considerably diminished”. In addition, the “activation of EGFR, IGF1R, and PI3K” value in series [3] is given as “clearly activated”. The “process that IGF1 generates signal to AKT (AKT phosphorylation)” value in series [5] is on record as “completely block”. The “IGF1-induced hypoglycemia (blood glucose)” value in series [6] was “clearly attenuated”. In series [8], the “EGFR, ERK1/2, and PI3K activation” value is given as “all activated”. Besides, in series [10], the “phosphorylation of AKT” value is listed as “almost totally absent”. In series [11], the Ras-ERK proliferation signals result was “intact”.

Take `CC(O)COC[C@H]1O[C@@H]2O[C@H]3[C@H](O)[C@@H](O)[C@@H](O[C@H]4[C@H](O)[C@@H](O)[C@@H](O[C@H]5[C@H](O)[C@@H](O)[C@@H](O[C@H]6[C@H](O)[C@@H](O)[C@@H](O[C@H]7[C@H](O)[C@@H](O)[C@@H](O[C@H]8[C@H](O)[C@@H](O)[C@@H](O[C@H]1[C@H](O)[C@H]2O)O[C@@H]8COCC(C)O)O[C@@H]7COCC(C)O)O[C@@H]6COCC(C)O)O[C@@H]5COCC(C)O)O[C@@H]4COCC(C)O)O[C@@H]3COCC(C)O` (stereo partly drawn) [HPBCD, (2-hydroxypropyl)-β-cyclodextrin]: in series [12], the “amount that remains in circulation” value is on record as “about 50%”.

As to `OC[C@H]1O[C@@H]2O[C@H]3[C@H](O)[C@@H](O)[C@@H](O[C@H]4[C@H](O)[C@@H](O)[C@@H](O[C@H]5[C@H](O)[C@@H](O)[C@@H](O[C@H]6[C@H](O)[C@@H](O)[C@@H](O[C@H]7[C@H](O)[C@@H](O)[C@@H](O[C@H]1[C@H](O)[C@H]2O)O[C@@H]7CO)O[C@@H]6CO)O[C@@H]5CO)O[C@@H]4CO)O[C@@H]3CO` [α-cyclodextrin], the “enhancement of the combination effect of 2DG-ABT (live cells)” value in [13] was “little enhanced”.

With `OC[C@H]1O[C@@H]2O[C@H]3[C@H](O)[C@@H](O)[C@@H](O[C@H]4[C@H](O)[C@@H](O)[C@@H](O[C@H]5[C@H](O)[C@@H](O)[C@@H](O[C@H]6[C@H](O)[C@@H](O)[C@@H](O[C@H]7[C@H](O)[C@@H](O)[C@@H](O[C@H]8[C@H](O)[C@@H](O)[C@@H](O[C@H]9[C@H](O)[C@@H](O)[C@@H](O[C@H]1[C@H](O)[C@H]2O)O[C@@H]9CO)O[C@@H]8CO)O[C@@H]7CO)O[C@@H]6CO)O[C@@H]5CO)O[C@@H]4CO)O[C@@H]3CO` [γ-cyclodextrin], the “enhancement of the combination effect of 2DG-ABT (live cells)” value in [13] is “little enhanced”.
